Measurements from US20250161313A1, “A METHOD FOR THE TREATMENT OF NEUROPATHY” (INSTITUT NATIONAL DE LA SANTÉ ET DE LA RECHERCHE MÉDICALE, priority 2022, published 2025).

How the values were obtained:
C57B16/J mice [1] = experiment: Mechanical sensitivity (von Frey hairs) in mEERL tumor-bearing mice; format: in vivo; settings: cisplatin plus KW6002 vs. cisplatin, FIG. 3D
Method: (§1) We used a validated murine model of HPV+ oropharyngeal squamous cell carcinoma as previously described (noncommercial) (80). This model consists of oropharyngeal epithelial cells from C57Bl/6 male mice that stably express the HPV16 viral oncogenes E6 and E7, H-Ras, and luciferase (mEERL cells). mEERL cells were grown in a T75 flask until confluent, after which cells were trypsinized and harvested, washed 3 times with sterile PBS, and resuspended in 1 mL sterile PBS to the appropriate concentration. Mice were injected s.c. into the right flank with 20 μL solution containing either 1,000,000 mEERL cells or PBS (vehicle). The day of mEERL cell injection is indicated as day −14. Tumor volume was monitored using Vernier digital calipers. When the tumor volume reached 100 mm3, the mice were randomly ascribed to 1 of the 3 experimental groups (vehicle; cisplatin; or cisplatin plus KW6002).
(§2) Mechanical pain sensitivity, a classical read out for CIPN in rodents, was assessed using von Frey filaments as previously described (65-66). Briefly, mice were placed in opaque boxes (10×10×10 cm). After a 30 min habituation period, von Frey filaments were applied, and the paw withdrawal threshold was calculated using the “up & down” method. Behavioral testing was performed by experimenter blinded to treatment and genotype.

C57B16/J mice [2] = experiment: Mechanical pain sensitivity (von Frey filaments) in sub-chronic cisplatin model; format: in vivo; settings: KW-6002 3 mg/kg i.p. daily day -5 to day 7; cisplatin 3 mg/kg i.p. for 6 days; vs. cisplatin; FIG. 1A
Method: (§3) Animal experiments were adapted from 63-64. Animal procedures were performed in 8 to 10 weeks old male C57B16/J mice (Janvier Labs except for pain experiments, Jackson lab). Mice were fed a laboratory standard diet with water and food ad libitum and were kept under constant environmental conditions with a 12-hour light-dark cycle. Istradefylline (KW-6002; Tocris) was dissolved in a carrier solution consisting in 15% DMSO, 15% cremophor (Sigma), 70% saline solution (vehicle). Cisplatin (Accord Healthcare) was dissolved in saline solution. Neuropathy resulting from of sub-chronic cisplatin was evaluated following six daily i.p. injections of cisplatin (3 mg/kg) starting at day 0 and mice were sacrificed 72h after the last injection of cisplatin (day 8). KW-6002 was administered daily i.p. from day −5 to day 7 (FIG. 2).
as §2

[3] = system: Il6, Tnf, Il1b and Ccl2 expression in DRG and spinal cord; experiment: mRNA levels of cytokines in spinal cord and DRG (quantitative RT-PCR), sub-chronic cisplatin model; format: in vivo, mice; settings: 8 days after start of cisplatin treatment, vs. cisplatin
Method: as §3
Lumbar dorsal root ganglion (DRG) and spinal cord tissues were quickly dissected and snap-frozen in liquid nitrogen.
For DRG and spinal cord tissues, total RNA was extracted with phenol/chloroform and subsequently precipitated in isopropanol as described previously (71).
(§4) Reverse transcription was performed on 1 μg of RNA using high-capacity cDNA reverse transcription kit (Thermo Fisher), according the manufacturer's recommendation. Real time PCR was performed on a StepOne device using Taqman Gene Expression Master Mix (Thermo Fisher), following manufacturer's recommendations. Expression levels of the following genes were evaluated using comparative CT method (2-deltaCT): Tumor Necrosis Factor alpha (Tnfa, Assay ID Mm00443258_m1), Interleukin-6 (Il6, Assay ID Mm00446190_m1), Il1b (assay ID Mm00434228_m1); chemokine (C-C motif) ligand 2 (Ccl2, assay ID Mm00441242_m1). Transcript levels of PPIA (Mm02342430_m1) were used as endogenous control.

mEERL cells = experiment: Tumor size in mEERL syngeneic in vivo tumor model; settings: mEERL tumor-bearing mice; cisplatin plus KW6002 vs. cisplatin; FIG. 3E
Method: as §1

[4] = system: KIM-1, Tnf and Il6 expression; experiment: Cisplatin-induced nephrotoxicity markers (mRNA) in mEERL tumor-bearing mice; format: in vivo; settings: cisplatin plus KW6002 vs. cisplatin
Method: as §1, §4

Structure (SMILES): CCn1c(=O)c2c(nc(/C=C/c3ccc(OC)c(OC)c3)n2C)n(CC)c1=O [KW-6002, 8-[(E)-2-(3,4-dimethoxyphenyl)vinyl]-1,3-diethyl-7-methyl-3,7-dihydro-1H-purine-2,6-dione]
- cisplatin-induced pain hypersensitivity (von Frey) (C57B16/J mice [1]): alleviated
- cisplatin-induced pain hypersensitivity (mechanical sensitivity, von Frey) (C57B16/J mice [2]): significantly mitigated pain hypersensitivity
- Tnf mRNA level in spinal cord ([3]; KW-6002 3 mg/kg, FIG. 1C): significantly downregulated
- Il6 mRNA level in DRG ([3]; KW-6002 3 mg/kg, FIG. 1D): significantly downregulated
- Tnf mRNA level in DRG ([3]; KW-6002 3 mg/kg, FIG. 1E): significantly downregulated
- Il 1b mRNA level in DRG ([3]; FIG. 1F): significantly reversed the upregulation
- Ccl2 mRNA level in DRG ([3]; FIG. 1G): significantly reversed the upregulation
- tumor control by cisplatin (absolute tumor size) (mEERL cells): significantly potentiated
- indicator of renal toxicity KIM-1 (mRNA) induced by cisplatin ([4]; FIG. 3A): limited
- expression of inflammatory cytokine Tnf induced by cisplatin ([4]; FIG. 3B): limited
- expression of inflammatory cytokine Il6 induced by cisplatin ([4]; FIG. 3C): limited
